# What was measured:
# large crabgrass = test: Test D large crabgrass; assay type: in vivo, Digitaria sanguinalis; details: Preemergence, 0 to 100 scale
# Excerpt: Seeds, tubers, or plant parts of Alexandergrass (Brachiaria plantaginea), bermuda-grass (Cynodon dactylon), common pursiane (Portulaca oleracea), common ragweed (Ambrosia elatior), common groundsel (Senecio vulgaris), dallisgrass (Paspalum dilatatum), goosegrass (Eleusine indica), guineagrass (Panicum maximum), itchgrass (Rottboellia exaltata), Johnson grass (Sorghum halepense), large crabgrass (Digitaria sanguinalis), pitted morningglory (Ipomoea lacunosa), purple nutsedge (Cyperus rotundus), sandbur (Cenchrus echinatus), sourgrass (Trichachne insularis), Spanishneedles (Bidens bipinnata), surinam grass (Brachiaria decumbens) and tall mallow (Malva sylvestris) were planted into greenhouse pots of flats containing greenhouse planting medium. Plant species were grown in separate pots or individual compartments. Preemergence applications were made within one day of planting the seed or plant part.
# Test chemicals were formulated in a non-phytotoxic solvent mixture which included a surfactant and applied preemergence to the surface of the pot containing seeds in a sandy loam soil. Untreated control pots and treated pots were placed in the greenhouse for growth and visually evaluated for injury 14 to 21 days after herbicide application. Plant response ratings, summarized in Table C, are based on a 0 to 100 scale where 0 is no injury and 100 is complete control. A dash (−) response means no test result.
# rice = test: Test B flood test rice; assay type: in vivo, Oryza sativa
# Summary of the method: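 Flood test on plants grown to the 2-leaf stage; treated plants kept in greenhouse twelve to sixteen days, then visually rated against controls on a 0 (no effect) to 10 (complete control) scale.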
# common ragweed = test: Test D common ragweed; assay type: in vivo, Ambrosia elatior; details: Preemergence, 0 to 100 scale
# Summary of the method: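 Weed seeds planted in sandy loam; species kept apart in individual pots or compartments. Preemergence tests: treatment to soil surface within one day. Greenhouse growth, then visual injury scoring at 14–21 days (0–100).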
# sugar beet = test: Test B pre/postemergence sugar beet; assay type: in vivo, Beta vulgaris
# Summary of the method: (§1)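 Test chemicals in a non-phytotoxic solvent mixture with surfactant were sprayed preemergence onto planted seeds and postemergence onto plants 2 to 18 cm tall (1- to 4-leaf stage). After twelve to sixteen days in a greenhouse, injury was visually rated against untreated controls from 0 (no effect) to 10 (complete control).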
# pigweed = test: Test B pre/postemergence pigweed; assay type: in vivo, Amaranthus retroflexus
# Summary of the method: as §1
# purple nutsedge = test: Test B pre/postemergence purple nutsedge; assay type: in vivo, Cyperus rotundus
# Summary of the method: as §1
# green foxtail = test: Test E green foxtail; assay type: in vivo, Setaria viridis; details: Preemergence
# Italian ryegrass = test: Test E Italian ryegrass; assay type: in vivo, Lolium multiflorum; details: Preemergence
# winter wheat [1] = test: Test E winter wheat; assay type: in vivo, Triticum aestivum; details: Postemergence
# Summary of the method: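 Greenhouse test: compounds in non-phytotoxic solvent with surfactant; for postemergence, sprayed on plants at 1- to 4-leaf stage grown in 60:40 sandy loam/potting mix. Injury rated visually against untreated controls after about 21 to 28 days.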
# blackgrass = test: Test E blackgrass; assay type: in vivo, Alopecurus myosuroides; details: Preemergence
# winter wheat [2] = test: Test E winter wheat; assay type: in vivo, Triticum aestivum; details: Preemergence
# winter barley = test: Test E winter barley; assay type: in vivo, Hordeum vulgare; details: Preemergence
# wild oat = test: Test E wild oat; assay type: in vivo, Avena fatua; details: Preemergence
# [3] = Rate 32 g/ha, 0 no injury, 100 complete control
# [4] = Rate 64 g/ha, 0 no injury, 100 complete control
# [5] = Rate 125 g/ha, 0 no injury, 100 complete control
# [6] = Postemergence, Rate 62 g/ha, scale 0 to 10, 0 is no effect, 10 is complete control
# [7] = Postemergence, Rate 250 g/ha, scale 0 to 10, 0 no effect, 10 complete control
# [8] = Preemergence, Rate 62 g/ha, scale 0 to 10, 0 is no effect, 10 is complete control
# [9] = Preemergence, Rate 125 g/ha, scale 0 to 10 (0 no effect, 10 complete control)
# [10] = Preemergence, Rate 250 g/ha, scale of 0 to 10 where 0 is no effect and 10 is complete control
# [11] = Preemergence, Rate 500 g/ha, scale 0 (no effect) to 10 (complete control)
# [12] = Rate 125 g/ha, Postemergence, scale 0 to 10, 0 no effect, 10 complete control
# [13] = Rate 500 g/ha, Postemergence, 0 to 10 scale (0 no effect, 10 complete control)
# [14] = Rate 500 g/ha, 0 to 100 scale (0 no effect, 100 complete control)
# [15] = Rate 1000 g/ha, 0 to 100 scale, 0 no effect, 100 complete control
# [16] = Postemergence, Rate 125 g/ha, scale 0 to 10, 0 is no effect, 10 is complete control
# [17] = Preemergence, Rate 62 g/ha, scale of 0 to 10 where 0 is no effect and 10 is complete control
# [18] = Preemergence, Rate 500 g/ha, scale of 0 to 10 where 0 is no effect and 10 is complete control
# [19] = Rate 62 g/ha, Postemergence, scale of 0 to 10 where 0 is no effect and 10 is complete control
# [20] = Rate 500 g/ha, Postemergence, scale 0 to 10, 0 no effect, 10 complete control
compound,measurement,setting,value
CCc1ccccc1-n1c(=O)on(C(=O)N(c2ccc(F)cc2)C(C)C)c1=O [Compound 34],Plant response rating Large crabgrass,large crabgrass; [3],85
same,Plant response rating Large crabgrass,large crabgrass; [4],98
same,Plant response rating Large crabgrass,large crabgrass; [5],100
same,Plant response rating Large crabgrass,large crabgrass; Rate 250 g/ha,100
same,Rice plant response rating,rice; [6],0
same,Rice plant response rating,"rice; Rate 125 g/ha, Postemergence section (flood test species), scale 0 to 10, 0 no effect, 10 complete control",0
same,Rice plant response rating,"rice; Rate 500 g/ha, Postemergence section of Table B, 0 to 10 scale (0 no effect, 10 complete control)",0
same,Rice plant response rating,"rice; flood test, listed under Postemergence, Rate 250 g/ha, scale 0 to 10, 0 no effect, 10 complete control",0
same,"Plant response rating, C. ragweed",common ragweed; [3],0
same,"Plant response rating, C. ragweed",common ragweed; [4],0
same,"Plant response rating, C. ragweed",common ragweed; [5],0
same,"Plant response rating, C. ragweed",common ragweed; Rate 250 g/ha,0
same,Sugarbeets plant response rating,sugar beet; [6],0
same,Sugarbeets plant response rating,sugar beet; [7],0
same,"Plant response rating, Sugarbeets",sugar beet; [8],0
same,"Plant response rating, Sugarbeets",sugar beet; [9],0
same,"Plant response rating, Sugarbeets",sugar beet; [10],0
same,Sugarbeets plant response rating,sugar beet; [11],4
same,Sugarbeets plant response rating,sugar beet; [12],0
same,Redroot pigweed plant response rating,pigweed; [6],0
same,Redroot pigweed plant response rating,pigweed; [7],6
same,"Plant response rating, Redroot pigweed",pigweed; [8],0
same,"Plant response rating, Redroot pigweed",pigweed; [9],2
same,"Plant response rating, Redroot pigweed",pigweed; [10],6
same,Redroot pigweed plant response rating,pigweed; [11],6
same,Redroot pigweed plant response rating,pigweed; [12],0
same,Redroot pigweed plant response rating,pigweed; [13],7
same,Nutsedge plant response rating,purple nutsedge; [6],0
same,Nutsedge plant response rating,purple nutsedge; [7],0
same,"Plant response rating, Nutsedge",purple nutsedge; [8],0
same,"Plant response rating, Nutsedge",purple nutsedge; [9],0
same,"Plant response rating, Nutsedge",purple nutsedge; [10],0
same,Nutsedge plant response rating,purple nutsedge; [11],0
same,Nutsedge plant response rating,purple nutsedge; [12],0
same,Nutsedge plant response rating,purple nutsedge; [13],0
CC(C)N(C(=O)n1oc(=O)n(C2CCCCCC2)c1=O)c1ccc(F)cc1 [Compound 340],"Plant response rating, Green foxtail","green foxtail; Rate 250 g/ha, 0 to 100 scale",30
same,"Plant response rating, Green foxtail",green foxtail; [14],60
same,"Plant response rating, Green foxtail",green foxtail; [15],100
same,"Plant response rating, I. Ryegrass","Italian ryegrass; Rate 250 g/ha, 0 to 100 scale",55
same,"Plant response rating, I. Ryegrass",Italian ryegrass; [14],60
same,"Plant response rating, I. Ryegrass",Italian ryegrass; [15],65
same,"Plant response rating, Wheat (winter)","winter wheat [1]; Rate 250 g/ha, 0 to 100 scale, 0 is no effect, 100 is complete control",30
same,"Plant response rating, Wheat (winter)","winter wheat [1]; Rate 1000 g/ha, 0 to 100 scale where 0 is no effect and 100 is complete control",60
same,"Plant response rating, Wheat (winter)","winter wheat [1]; Rate 500 g/ha, 0 to 100 scale, 0 is no effect, 100 is complete control",55
same,Rice plant response rating,"rice; Rate 62 g/ha, headed Pre-emergence (flood test species), scale 0 to 10 (0 no effect, 10 complete control)",0
same,Rice plant response rating,"rice; Rate 125 g/ha, Pre-emergence, flood test species, scale 0 to 10 where 0 is no effect and 10 is complete control",0
same,Rice plant response rating,"rice; Rate 250 g/ha, Pre-emergence, flood-test species, scale 0 to 10, 0 is no effect, 10 is complete control",0
same,Rice plant response rating,"rice; Rate 500 g/ha, Pre-emergence, flood test species, scale 0 to 10 (0 no effect, 10 complete control)",0
same,"Plant response rating, Blackgrass","blackgrass; Rate 250 g/ha, 0 to 100 scale",50
same,"Plant response rating, Blackgrass",blackgrass; [14],60
same,"Plant response rating, Blackgrass",blackgrass; [15],85
same,"Plant response rating, Sugarbeets",sugar beet; [16],2
same,Sugarbeets plant response rating,sugar beet; [17],0
same,Sugarbeets plant response rating (0 to 10 scale),"sugar beet; Preemergence, Rate 125 g/ha",0
same,Sugarbeets plant response rating,sugar beet; [10],0
same,Sugarbeets plant response rating,sugar beet; [18],0
same,Sugarbeets plant response rating,sugar beet; [19],0
same,"Plant response rating, Sugarbeets",sugar beet; [20],6
same,"Plant response rating, Wheat (winter)","winter wheat [2]; Rate 250 g/ha, 0 to 100 scale",40
same,"Plant response rating, Wheat (winter)",winter wheat [2]; [14],50
same,"Plant response rating, Wheat (winter)",winter wheat [2]; [15],60
same,"Plant response rating, Barley (winter)","winter barley; Rate 250 g/ha, 0 to 100 scale, 0 no effect, 100 complete control",50
same,"Plant response rating, Barley (winter)",winter barley; [14],40
same,"Plant response rating, Barley (winter)",winter barley; [15],50
same,"Plant response rating, Wild oat","wild oat; Rate 250 g/ha, 0 to 100 scale",50
same,"Plant response rating, Wild oat",wild oat; [14],50
same,"Plant response rating, Wild oat",wild oat; [15],60
same,"Plant response rating, Redroot pigweed",pigweed; [16],4
same,Redroot pigweed plant response rating,pigweed; [17],0
same,Redroot pigweed plant response rating (0 to 10 scale),"pigweed; Preemergence, Rate 125 g/ha",0
same,Redroot pigweed plant response rating,pigweed; [10],3
same,Redroot pigweed plant response rating,pigweed; [18],4
same,Redroot pigweed plant response rating,pigweed; [19],2
same,"Plant response rating, Nutsedge",purple nutsedge; [16],0
same,Nutsedge plant response rating,purple nutsedge; [17],0
same,Nutsedge plant response rating (0 to 10 scale),"purple nutsedge; Preemergence, Rate 125 g/ha",0
same,Nutsedge plant response rating,purple nutsedge; [10],0
same,Nutsedge plant response rating,purple nutsedge; [18],0
same,Nutsedge plant response rating,purple nutsedge; [19],0
same,"Plant response rating, Nutsedge",purple nutsedge; [20],0
